{"source": "patent US20230233494A1", "about": "“BIOAVAILABLE SUGAR-BASED DICLOFENAC FORMULATIONS” (APR Applied Pharma Research SA, priority 2020, published 2023)", "origin": "cited, not measured here", "details": "at acidic pH", "note": "Counter-ions that a name gives are not always drawn."}
{"compound": "O=C(O)Cc1ccccc1Nc1c(Cl)cccc1Cl", "note": "[diclofenac potassium, [2-(2,6-dichlorophenyl)amino]benzeneacetate, potassium salt]", "values": [{"measurement": "Solubility", "result": "sparingly soluble"}]}
